Measurements published in US20160310389A1, “Low Viscosity Hair Care Composition” (The Procter & Gamble Company, priority 2015, published 2016).
Structures can show the parent of a compound that is named as a salt.

Key:
Assay type in all cases: physicochemical
[1] = Kinematic viscosity of surfactant base formulation with added agent (calibrated Cannon viscometers); conditions: for Kinematic viscosity at 40 C., 2% oil: 2% agent in base formulation; for Kinematic viscosity at 40 C., 4% oil: 4% agent in base formulation; for Kinematic viscosity at 40 C., 6% oil: 6% agent in base formulation; for Kinematic viscosity at 40 C., 8% oil: 8% agent in base formulation; for Lowest viscosity achieved: kinematic viscosity at 40° C., lowest over 2%, 4%, 6%, 8% agent in base formulation (24% sodium undecyl sulfate, 6% lauramidopropyl betaine, 1.6% perfume)
Excerpt: Referring to Tables 1 and 2, the base formulations were made by mixing 1.6% perfume, 24% sodium undecyl sulfate (CAS#1072-24-8) active, 6% lauramidopropyl betaine (CAS#4292-10-8) active and 60.4% deionized water which leaves 8% unfilled for the addition of a viscosity reducing agent (the balance being filled in by distilled water). For all compositions, the surfactant, water and additives including viscosity reducing agents were expected to be in a single phase.
The agents from Tables 1 and 2 were added to the base formulation at a percentage of 2%, 4%, 6%, and 8% into the above surfactant solution. The subsequent formulations were vortexed and put into oven at 60° C. overnight to form homogeneous solution. The viscosities of the formulations were measured with calibrated viscometers (Size 200/350/450) from Cannon Instrument Company (2139 High Tech Road, State College, Pa., USA, 16803).
After the equilibration, the formulations were drawn to reach the starting mark with a rubber suction bulb and the flow time between the starting mark and end mark was recorded for calculation. Each formulation was measured three times to calculate average and standard deviation. Between samples, viscometer was cleaned with water and acetone to rinse off residual.
Viscosity values were calculated based on the equation:
Viscosity (mm^2/s (cSt))=Time (s)*Constant (mm^2/s^2·(cSt/s))
The time in the above equation is the flow time recorded in the experiment and the constant numbers for each calibrated viscometer were obtained from the manuals.

[2] = SAXS correlation length of the micelles; conditions: for Change in correlation length compared to control: control 51 A
Excerpt: Now referring to Table 4, SAXS (Small angle x-ray scattering) was used to characterize the structure of the surfactant aggregates. For these set of samples, the broad peak represents the correlation length (CL) of the micelles and was used to differentiate between the different formulations.
SAXS data was collected with a Bruker NanoSTAR (Bruker AXS Inc., Madison, Wis., U.S.A.) using the micro-focus, Cu x-ray tube, operating at 45 kV, 0.650 mA. The sample to detector distance was 112.050 cm and the detector was Vantec2K 2-dimensional area detector. Samples were placed in 2 mm quartz capillaries, sealed with expoxy resin to prevent evaporation. The sealant is permitted to cure for 2 hours at RT (room temperature) prior to loading into the SAXS sample chamber for data acquisition under vacuum with a data collection time of 1200 s. The data acquisition angular range is 0.3° to 3.0° […], to observe the presence and location of any intensity bands in the x-ray scattering pattern.
Each raw 2-D SAXS data is integrated azimuthally and plotted versus the scattering vector (q), which is expressed as a […] in units of angstroms (1/Å). • The values for q are calculated by the SAXS instrument according to the following equation: […]
Where: 2θ is the scattering angle; and λ is the wavelength used. For each formulation analyzed, the location of each intensity peak on the plot of (Intensity) I vs q is identified and recorded.

[3] = NMR self-diffusion coefficients and specific diffusivity ratio; conditions: for Specific diffusivity ratio measured at 4%: diffusion coefficient of the viscosity reducing agent/diffusion coefficient of the surfactant, 4% additive; for Diffusion Coefficient (m^2/s) surfactant at 4% additive: surfactant self-diffusion
Method: Now referring to Table 5, the specified viscosity reducing agents were added to the formula at a level of 4% in absence of other viscosity reducing agents. Diffusion coefficients were determined using a vendor-supplied pulse sequence (“ledbpgq2s”, stimulated echo with bipolar gradients and convection compensation) using a Bruker Avance 700 MHz NMR spectrometer equipped with a Diff-30 high gradient diffusion probe. Gradient pulse durations ranged between 1700-2700 us, with diffusion periods ranging from 50-100 ms. 32 linearly-spaced gradient values were used ranging from 2%-95% of 40 A current, with resulting gradient strengths given by 30 Gauss/cm/A. Data were processed using software written in-house. It is often necessary to fit more than one diffusion coefficient to individual signals. Average diffusion coefficients are reported in these cases. Averages were calculated by averaging the reciprocals of the diffusion coefficients and then taking the reciprocal of that average.
The specific diffusivity ratio is calculated as the ratio of the diffusion coefficient of the viscosity reducing agent/diffusion coefficient of the surfactant.
Two mechanisms of viscosity reduction are hypothesized based on self-diffusion coefficients. This leads to a simple diagnostic measurement to classify perfumes by their mechanism of viscosity reduction. That diagnostic is the ratio of the perfume self-diffusion coefficient to the surfactant self-diffusion coefficient (specific diffusivity ratio). In mechanism 1, the surfactant diffusion coefficient is not reduced, and may be increased, while the perfume diffusion coefficient is faster still. In mechanism 2, the surfactant and perfume diffusion coefficient are reduced to relatively small, nearly equal values. For mechanism 1, the viscosity reducing agent diffuses faster than the surfactant (specific diffusivity ratio>1), whereas for mechanism 2, the viscosity reducing agent diffuses slower than the surfactant (specific diffusivity ratio<1).

## CCO [Ethanol]
[1]
  Kinematic viscosity at 40 C., 2% oil: 205.6 cSt
  Kinematic viscosity at 40 C., 4% oil: 111.0 cSt
  Kinematic viscosity at 40 C., 6% oil: 50.8 cSt
  Kinematic viscosity at 40 C., 8% oil: 29.2 cSt
  Lowest viscosity achieved: 29 cSt
[2]; 2% oil
  Correlation length peak [A]: 51 A
  Change in correlation length compared to control: 0.0%
[2]; 4% oil
  Correlation length peak [A]: 49 A
  Change in correlation length compared to control: −3.9%

## CC(=O)OCCC(C)CCCC(C)C (stereo not drawn) [3,7-Dimethyloctyl Acetate]
[1]
  Kinematic viscosity at 40 C., 2% oil: 445.7 cSt
  Lowest viscosity achieved: 446 cSt

## CCCCCCC1C(=O)CCC1C(=O)OC (stereo not drawn) [Dihyro Iso Jasmonate]
[1]
  Kinematic viscosity at 40 C., 2% oil: 334.9 cSt
  Kinematic viscosity at 40 C., 4% oil: 119.1 cSt
  Lowest viscosity achieved: 119 cSt

## CCCCOC(=O)c1ccccc1O [Butyl Salicylate]
[1]
  Kinematic viscosity at 40 C., 2% oil: 367.9 cSt
  Lowest viscosity achieved: 368 cSt

## CCOC(=O)CC(O)(CC(=O)OCC)C(=O)OCC [Triethyl Citrate]
[3]
  Specific diffusivity ratio measured at 4%: 3.9850
  Diffusion Coefficient (m^2/s) surfactant at 4% additive: 1.0196E−11 m^2/s
[1]
  Kinematic viscosity at 40 C., 2% oil: 269.4 cSt
  Kinematic viscosity at 40 C., 4% oil: 136.6 cSt
  Kinematic viscosity at 40 C., 6% oil: 66.6 cSt
  Kinematic viscosity at 40 C., 8% oil: 40.5 cSt
  Lowest viscosity achieved: 41 cSt
[2]; 2% oil
  Correlation length peak [A]: 50 A
  Change in correlation length compared to control: −2.0%
[2]; 4% oil
  Correlation length peak [A]: 49 A
  Change in correlation length compared to control: −3.9%

## CCCCCC1(C)CCC(C)(C)C1=O (stereo not drawn) [Veloutone]
[3]
  Specific diffusivity ratio measured at 4%: 0.965
  Diffusion Coefficient (m^2/s) surfactant at 4% additive: 2.3854E−12 m^2/s
[1]
  Kinematic viscosity at 40 C., 2% oil: 260.2 cSt
  Kinematic viscosity at 40 C., 4% oil: 129.1 cSt
  Kinematic viscosity at 40 C., 6% oil: 56.3 cSt
  Kinematic viscosity at 40 C., 8% oil: 47.3 cSt
  Lowest viscosity achieved: 47 cSt
[2]; 2% oil
  Correlation length peak [A]: 55 A
  Change in correlation length compared to control: 7.8%
[2]; 4% oil
  Correlation length peak [A]: 59 A
  Change in correlation length compared to control: 15.7%

## CC1=CCC(C(C)C)=CC1 [gamma-Terpinene]
[1]
  Kinematic viscosity at 40 C., 2% oil: 238.0 cSt
  Kinematic viscosity at 40 C., 4% oil: 65.0 cSt
  Kinematic viscosity at 40 C., 6% oil: 31.7 cSt
  Lowest viscosity achieved: 32 cSt

## CCC(=O)O[C@@H]1C[C@H]2CC[C@]1(C)C2(C)C (racemic) [Iso Bornyl Propionate]
[1]
  Kinematic viscosity at 40 C., 2% oil: 463.1 cSt
  Lowest viscosity achieved: 463 cSt

## OCC(O)CO [Glycerin]
[2]; 2% oil
  Correlation length peak [A]: 51 A
  Change in correlation length compared to control: 0.0%
[2]; 4% oil
  Correlation length peak [A]: 51 A
  Change in correlation length compared to control: 0.0%

## CCCCCCCCCCCCCC(=O)OC(C)C [Iso Propyl Myristate]
[3]
  Specific diffusivity ratio measured at 4%: 0.6401
  Diffusion Coefficient (m^2/s) surfactant at 4% additive: 2.1874E−12 m^2/s
[1]
  Kinematic viscosity at 40 C., 2% oil: 234.2 cSt
  Kinematic viscosity at 40 C., 4% oil: 53.7 cSt
  Kinematic viscosity at 40 C., 6% oil: 30.4 cSt
  Kinematic viscosity at 40 C., 8% oil: 45.0 cSt
  Lowest viscosity achieved: 30 cSt

## CCCCCC(=O)OCC(C)C [Isobutyl Hexanoate]
[1]
  Kinematic viscosity at 40 C., 2% oil: 390.0 cSt
  Kinematic viscosity at 40 C., 4% oil: 177.9 cSt
  Kinematic viscosity at 40 C., 6% oil: 140.9 cSt
  Kinematic viscosity at 40 C., 8% oil: 109.4 cSt
  Lowest viscosity achieved: 109 cSt

## COc1ccc(C=O)cc1 [Anisic aldehyde]
[3]
  Specific diffusivity ratio measured at 4%: 3.3012
  Diffusion Coefficient (m^2/s) surfactant at 4% additive: 1.8945E−11 m^2/s
[2]; 2% oil
  Correlation length peak [A]: 51 A
  Change in correlation length compared to control: 0.0%
[2]; 4% oil
  Correlation length peak [A]: 51 A
  Change in correlation length compared to control: 0.0%

## COC(C)(C)C1CC=C(C)CC1 (stereo not drawn) [Orange Flower Ether]
[1]
  Kinematic viscosity at 40 C., 2% oil: 552.2 cSt
  Kinematic viscosity at 40 C., 4% oil: 418.8 cSt
  Lowest viscosity achieved: 419 cSt
